# Experimental data reported in the supplement of paper PMC11061612.
# What was measured:
# Test in all cases: combination Emax (second highest fraction inhibited in the dose matrix, 72 h); higher = more inhibition; extreme values may be limits of the assay
# [1] = test system: KP-1N (Pancreatic Carcinoma)
# Method in brief: (§1)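 After 24 hours at 37°C and 5% CO2 in 1536-well plates, cells in DMEM/F12 or RPMI plus 10% FBS received two-drug dose matrices for 72 hours. Viability came from CellTiter-Glo 2.0 luminescence and was scaled as inhibition, anchored at 0 by vehicle wells and at 1 by blank wells. Combination Emax is taken as the second-highest inhibition in the matrix, and Bliss excess as the observed combination effect less EA + EB − EA·EB, with EA and EB the single-agent effects.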
# [2] = test system: LNCaP-Clone-FGC (Prostate Carcinoma)
# Method in brief: as §1
# [3] = test system: LS-180 (Colorectal Carcinoma)
# Method in brief: as §1
# T98G (Glioblastoma) = test system: T98G (Glioblastoma)
# Method in brief: as §1
# [4] = test system: Ramos-2G6-4C10 (Burkitt's Lymphoma)
# Method in brief: as §1
# [5] = test system: KURAMOCHI (Ovarian Carcinoma)
# Method in brief: as §1
# [6] = test system: Daoy (Other Solid Carcinomas)
# Method in brief: as §1
# [7] = test system: CAL-148 (Breast Carcinoma)
# Method in brief: as §1
# [8] = test system: SNU-5 (Gastric Carcinoma)
# Method in brief: as §1
# [9] = test system: HT-1376 (Bladder Carcinoma)
# Method in brief: as §1
# [10] = test system: RO82-W-1 (Thyroid Gland Carcinoma)
# Method in brief: as §1
# [11] = test system: Hs-578-T (Breast Carcinoma)
# Method in brief: as §1
SMILES,combination Emax [1],combination Emax [2],combination Emax [3],combination Emax (T98G (Glioblastoma)),combination Emax [4],combination Emax [5],combination Emax [6],combination Emax [7],combination Emax [8],combination Emax [9],combination Emax [10],combination Emax [11]
"CN(C)CCCOc1ccc(-c2ccc3ncc4c(c3c2)n(C2CCOCC2)c(=O)n4C)cn1 [AZD0156] + C=CCn1c(=O)c2cnc(Nc3ccc(N4CCN(C)CC4)cc3)nc2n1-c1cccc(C(C)(C)O)n1 [AZD1775] (first compound max 1 µM, partner max 1 µM)",0.471,0.738,0.452,0.657,0.995,0.678,0.847,0.966,0.56,0.294,0.38,0.784
"CN(C)CCCOc1ccc(-c2ccc3ncc4c(c3c2)n(C2CCOCC2)c(=O)n4C)cn1 [AZD0156] + CCN(CCO)CCCOc1ccc2c(Nc3cc(CC(=O)Nc4cccc(F)c4)[nH]n3)ncnc2c1 [AZD2811] (first compound max 1 µM, 7x7, partner max 1 µM)",0.293,0.556,0.261,0.33,0.528,0.115,0.303,0.935,0.162,0.0989,0.308,0.565
"CN(C)CCCOc1ccc(-c2ccc3ncc4c(c3c2)n(C2CCOCC2)c(=O)n4C)cn1 [AZD0156] + C[C@@H]1COCCN1C2=NC(=NC(=C2)C3(CC3)[S@](=N)(=O)C)C4=C5C=CNC5=NC=C4 [AZD6738] (first compound max 1 µM, 7x7, partner max 10 µM)",0.399,0.737,0.694,0.855,0.981,0.597,0.848,0.791,0.882,0.655,0.34,0.885
"C=CCn1c(=O)c2cnc(Nc3ccc(N4CCN(C)CC4)cc3)nc2n1-c1cccc(C(C)(C)O)n1 [AZD1775] + C[C@@H]1COCCN1C2=NC(=NC(=C2)C3(CC3)[S@](=N)(=O)C)C4=C5C=CNC5=NC=C4 [AZD6738] (first compound max 1 µM, partner max 10 µM)",0.397,0.787,0.809,0.873,1,0.743,0.944,1,0.934,0.67,0.445,0.921
"C=CCn1c(=O)c2cnc(Nc3ccc(N4CCN(C)CC4)cc3)nc2n1-c1cccc(C(C)(C)O)n1 [AZD1775] + O=C(c1cc(Cc2n[nH]c(=O)c3ccccc23)ccc1F)N1CCN(C(=O)C2CC2)CC1 [Olaparib] (first compound max 1 µM, partner max 10 µM)",0.359,0.77,0.574,0.675,1,0.699,0.882,0.978,0.433,0.425,0.405,0.839
"CCN(CCO)CCCOc1ccc2c(Nc3cc(CC(=O)Nc4cccc(F)c4)[nH]n3)ncnc2c1 [AZD2811] + C=CCn1c(=O)c2cnc(Nc3ccc(N4CCN(C)CC4)cc3)nc2n1-c1cccc(C(C)(C)O)n1 [AZD1775] (first compound max 1 µM, partner max 1 µM)",0.401,0.699,0.42,0.608,0.957,0.646,0.827,0.994,0.581,0.333,0.356,0.775
"CCN(CCO)CCCOc1ccc2c(Nc3cc(CC(=O)Nc4cccc(F)c4)[nH]n3)ncnc2c1 [AZD2811] + C[C@@H]1COCCN1C2=NC(=NC(=C2)C3(CC3)[S@](=N)(=O)C)C4=C5C=CNC5=NC=C4 [AZD6738] (first compound max 1 µM, 7x7, partner max 10 µM)",0.199,0.736,0.754,0.799,0.911,0.569,0.798,1,0.907,0.54,0.405,0.839
"CCN(CCO)CCCOc1ccc2c(Nc3cc(CC(=O)Nc4cccc(F)c4)[nH]n3)ncnc2c1 [AZD2811] + O=C(c1cc(Cc2n[nH]c(=O)c3ccccc23)ccc1F)N1CCN(C(=O)C2CC2)CC1 [Olaparib] (first compound max 1 µM, 7x7, partner max 10 µM)",0.0679,0.495,0.36,0.453,0.295,0.237,0.454,0.966,0.108,0.218,0.195,0.622
"CN(CCO)CC[C@H](CSc1ccccc1)Nc1ccc(S(=O)(=O)NC(=O)c2ccc(N3CCC([C@@H](O)c4ccccc4-c4ccc(Cl)cc4)CC3)cc2)cc1S(=O)(=O)C(F)(F)F [AZD4320] + C1CN(CCC1(C(=O)N[C@@H](CCO)C2=CC=C(C=C2)Cl)N)C3=NC=NC4=C3C=CN4 [Capivasertib] (first compound max 1 µM, 7x7, partner max 3 µM)",0.0744,0.97,0.213,0.249,0.586,0.351,0.249,1,0.447,0.74,0.311,0.639
"CN(CCO)CC[C@H](CSc1ccccc1)Nc1ccc(S(=O)(=O)NC(=O)c2ccc(N3CCC([C@@H](O)c4ccccc4-c4ccc(Cl)cc4)CC3)cc2)cc1S(=O)(=O)C(F)(F)F [AZD4320] + C=CCn1c(=O)c2cnc(Nc3ccc(N4CCN(C)CC4)cc3)nc2n1-c1cccc(C(C)(C)O)n1 [AZD1775] (first compound max 1 µM, partner max 1 µM)",0.398,0.773,0.422,0.892,1,0.807,0.99,0.994,0.658,0.718,0.618,0.928
"CN(CCO)CC[C@H](CSc1ccccc1)Nc1ccc(S(=O)(=O)NC(=O)c2ccc(N3CCC([C@@H](O)c4ccccc4-c4ccc(Cl)cc4)CC3)cc2)cc1S(=O)(=O)C(F)(F)F [AZD4320] + CCN(CCO)CCCOc1ccc2c(Nc3cc(CC(=O)Nc4cccc(F)c4)[nH]n3)ncnc2c1 [AZD2811] (first compound max 1 µM, 7x7, partner max 1 µM)",0.0993,0.245,0.18,0.554,0.909,0.327,0.715,1,0.45,0.784,0.46,0.918
"CN(CCO)CC[C@H](CSc1ccccc1)Nc1ccc(S(=O)(=O)NC(=O)c2ccc(N3CCC([C@@H](O)c4ccccc4-c4ccc(Cl)cc4)CC3)cc2)cc1S(=O)(=O)C(F)(F)F [AZD4320] + CN(C)CCCOc1ccc(-c2ccc3ncc4c(c3c2)n(C2CCOCC2)c(=O)n4C)cn1 [AZD0156] (first compound max 1 µM, 7x7, partner max 1 µM)",0.194,0.335,0.159,0.126,0.345,0.189,0.156,0.504,0.245,0.484,0.469,0.531
"COc1nnc2ccc(N3CCC(c4ccc(OCCN5CCN(C)C(=O)[C@H]5C)cc4)CC3)nn12 [AZD5153] + CN(CC[C@H](CSC1=CC=CC=C1)NC2=C(C=C(C=C2)S(=O)(=O)NC(=O)C3=CC=C(C=C3)N4CCC(CC4)[C@H](C5=CC=CC=C5C6=CC=C(C=C6)Cl)O)S(=O)(=O)C(F)(F)F)CCO [AZD4320] (first compound max 1 µM, 7x7, partner max 1 µM)",0.53,0.747,–,–,–,–,0.627,–,0.506,–,–,–
"Cc1c2c(nn1C)CSCc1cc(n(C)n1)CSc1cc(c3ccccc3c1)OCCCc1c(C(=O)O)n(C)c3c-2c(Cl)ccc13 [AZD5991] + C[C@@H](Nc1cc(F)cc(F)c1)c1cc(C(=O)N(C)C)cc2c(=O)cc(N3CCOCC3)oc12 [AZD8186] (first compound max 1 µM, 7x7, partner max 3 µM)",0.274,0.894,–,0.501,0.959,0.404,0.391,0.335,0.427,0.225,0.367,0.738
"CC(=O)c1c(C)c2cnc(Nc3ccc(N4CCNCC4)cn3)nc2n(C2CCCC2)c1=O [Palbociclib] + CN(CC[C@H](CSC1=CC=CC=C1)NC2=C(C=C(C=C2)S(=O)(=O)NC(=O)C3=CC=C(C=C3)N4CCC(CC4)[C@H](C5=CC=CC=C5C6=CC=C(C=C6)Cl)O)S(=O)(=O)C(F)(F)F)CCO [AZD4320] (first compound max 10 µM, 7x7, partner max 1 µM)",0.27,0.534,–,–,–,–,0.368,–,0.334,–,–,–
"CCc1c2c(nc3ccc(O)cc13)-c1cc3c(c(=O)n1C2)COC(=O)[C@]3(O)CC [SN-38] + O=C(c1cc(Cc2n[nH]c(=O)c3ccccc23)ccc1F)N1CCN(C(=O)C2CC2)CC1 [Olaparib] (first compound max 0.3 µM, 7x7, partner max 10 µM)",0.645,–,0.748,0.632,0.996,0.651,0.971,0.96,–,0.0829,0.469,0.709
"C[C@@H](c1ccc2nccn2c1)n1nnc2ncc(-c3cnn(C)c3)nc21 [Savolitinib] + CN(CC[C@H](CSC1=CC=CC=C1)NC2=C(C=C(C=C2)S(=O)(=O)NC(=O)C3=CC=C(C=C3)N4CCC(CC4)[C@H](C5=CC=CC=C5C6=CC=C(C=C6)Cl)O)S(=O)(=O)C(F)(F)F)CCO [AZD4320] (first compound max 1 µM, 7x7, partner max 1 µM)",0.175,0.258,–,–,–,–,0.139,–,1,–,–,–
